# In patent US8309554B2 (priority 2008, dated 2012):
# Values joined by “and” are separate entries in the source; they are usually repeats but may differ in a detail not shown here. Identical values can stand only once. Like-named read-outs stand apart in the source and are kept apart here.
# Legend:
# [1] = system: H460; assay: cells; format: cell-based; settings: for IC50: Homo sapiens, NCI-H460, 2 h
# [2] = system: HT29; assay: cells; format: cell-based; settings: for IC50: Homo sapiens, HT-29, 2 h
# [3] = system: H460 non small cell lung xenograft; settings: mouse, in vivo
# [4] = in vivo; settings: mouse, ip
# [5] = system: HT 1080 sarcoma xenograft; settings: mouse, in vivo
Compound,H460 HCR: Air/N2 [1],IC50 ([1]; read-out: 2 hr Air H460 IC50),IC50 ([1]; read-out: 2 hr N2 H460 IC50),HT29 HCR: Air/N2 [2],IC50 ([2]; read-out: 2 hr Air HT29 IC50),IC50 ([2]; read-out: 2 hr N2 HT29 IC50),tumor growth delay to 500 mm^3 [3],MTD [4],"tumor growth delay to 500 mm^3 ([5]; ip, 50 mg/kg)",tumor growth delay to 500 mm^3 [5]
"CS(=O)(=O)CCC(c1ccsc1[N+](=O)[O-])S(=O)(=O)Oc1ccc(N(CCCl)CCCl)cc1 (centres unmarked) [TH-1266, 3-(4-(N,N-bis-(2-Chloroethyl)amino)phenoxysulfonyl-(2-methylsulfonyl)ethyl)methyl-2-nitrothiophene]",183,55 µM,0.3 µM,>29,> 1000 µM,34 µM,25 days and 21 days,40 mg/kg,–,–
"O=[N+]([O-])c1sccc1C(Cc1ccc(O)nc1)S(=O)(=O)Oc1ccc(N(CCCl)CCCl)cc1 (centres unmarked) [TH-1305, 3-(4-(N,N-bis-(2-Chloroethyl)amino)phenoxysulfonyl-(2-hydroxypyridin-5-yl-methyl))methyl-2-nitrothiophene]",67,47 µM,0.7 µM,>44,> 300 µM,6.8 µM,10 days,20 mg/kg,–,–
"O=[N+]([O-])c1sccc1C(Cc1ccc(OCCO)nc1)S(=O)(=O)Oc1ccc(N(CCCl)CCCl)cc1 (centres unmarked) [TH-1315, 3-(4-(N,N-bis-(2-Chloroethyl)amino)phenoxysulfonyl-(2-(2-hydroxyethoxy)pyridin-5-yl-methyl))methyl-2-nitrothiophene]",142,99.5 µM,0.7 µM,>23,> 300 µM,13 µM,19 days,50 mg/kg,6 days,–
"O=[N+]([O-])c1sccc1C(Cc1cccnc1)S(=O)(=O)Oc1ccc(N(CCCl)CCCl)cc1 (centres unmarked) [TH-1331, 3-(4-(N,N-bis-(2-Chloroethyl)amino)phenoxysulfonyl-(pyridin-3-yl-methyl))methyl-2-nitrothiophene]",69,103 µM,1.5 µM,15,166 µM,11 µM,11 days and 10 days,60 mg/kg,–,–
"O=C(CO)Nc1ccc(CC(c2ccsc2[N+](=O)[O-])S(=O)(=O)Oc2ccc(N(CCCl)CCCl)cc2)cn1 (centres unmarked) [TH-1354, 3-(4-(N,N-bis-(2-Chloroethyl)amino)phenoxysulfonyl-(2-(hydroxyacetylamino)pyridin-5-yl-methyl))methyl-2-nitrothiophene]",65,156 µM,2.4 µM,33,660 µM,20 µM,15 days and 12 days,40 mg/kg,–,–
Cn1cncc1CC(c1ccsc1[N+](=O)[O-])S(=O)(=O)Oc1ccc(N(CCCl)CCCl)cc1 (centres unmarked) [TH-1365],33,23 µM,0.7 µM,25,270 µM,11 µM,10 days,10 mg/kg,–,–
"COc1cccc2c1C(=O)c1c(O)c3c(c(O)c1C2=O)C[C@@](O)(C(=O)CO)C[C@@H]3O[C@H]1C[C@H](N)[C@H](O)[C@H](C)O1 [doxorubicin, reference compound]",–,–,–,–,–,–,–,–,–,10 days
